Laboratory results: ChEMBL document CHEMBL1130583, “Benzylamine-based selective and orally bioavailable inhibitors of thrombin” (Bioorg Med Chem Lett, 1998)
pKi: −log10 of the molar value.

What was measured:
Prothrombin = Prothrombin (Homo sapiens, UniProt P00734); test: Binding affinity towards human thrombin
Rattus norvegicus = test: In vivo antithrombotic activity was tested in rat thromboplastin-induced model of venous thrombosis at an intravenous bolus of 5 mg/Kg; type: functional
Serine protease 1 = target: T1, Serine protease 1 (Bos taurus, UniProt P00760); test: Binding affinity towards bovine trypsin was evaluated in vitro
T1 sequence (P00760 whole entry): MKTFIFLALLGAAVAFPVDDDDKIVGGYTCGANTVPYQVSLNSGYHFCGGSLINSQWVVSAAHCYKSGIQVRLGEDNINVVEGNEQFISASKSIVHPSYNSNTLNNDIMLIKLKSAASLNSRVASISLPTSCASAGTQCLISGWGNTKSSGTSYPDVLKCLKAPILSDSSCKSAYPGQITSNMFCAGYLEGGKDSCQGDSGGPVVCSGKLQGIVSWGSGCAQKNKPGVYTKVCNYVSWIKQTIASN

[1] = Time taken by the compound to achieve maximum concentration in rat plasma at 30 mg/Kg upon oral administration.; type: ADME, organism-based
[2] = Maximum concentration in rat plasma at 30 mg/Kg upon oral administration.; type: ADME, organism-based; design: dose 30 mg/Kg, route oral
[3] = Apparent permeability coefficient (Papp) was determined in human Caco-2 cell monolayer (n = 3); type: ADME, cell-based

SMILES	pKi (Prothrombin)	pKi (Serine protease 1)	Tmax [1]	Cmax [2]	Papp [3]	inhibition in vivo at 5 mg/kg (Rattus norvegicus)
CN(C(=O)[C@H](Cc1ccc(CN)cc1)NS(=O)(=O)c1ccc(C2CCCCC2)cc1)C1CCCC1	7.70	5.32	–	–	–	23.8%
CN(C(=O)[C@H](Cc1ccc(CN)cc1)NS(=O)(=O)c1ccc2c(c1)CCCCC2)C1CCCC1	8.48	5.20	1.33 h	3.5 µM	–	39.4%
CN(C(=O)[C@H](Cc1ccc(CN)cc1)NS(=O)(=O)c1ccc(-c2ccccn2)s1)C1CCCC1	6.97	–	–	–	–	–
CN(C(=O)[C@H](Cc1ccc(CN)cc1)NS(=O)(=O)c1ccc2c(c1)CCCC2)C1CCCC1	8.00	5.01	–	–	–	16.4%
CN(C)c1cccc2c(S(=O)(=O)N[C@@H](Cc3ccc(CN)cc3)C(=O)N(C)C3CCCC3)cccc12	7.96	4.77	1.6 h	3.3 µM	–	35.5%
COc1ccc2cc(S(=O)(=O)N[C@@H](Cc3ccc(CN)cc3)C(=O)N(C)C3CCCC3)ccc2c1	8.18	4.85	2.33 h	2.8 µM	10.7 ×10⁻⁶ cm/s	44.1%
CN(C(=O)[C@H](Cc1ccc(C(=N)NN)cc1)NS(=O)(=O)c1ccc2ccccc2c1)C1CCCC1	–	–	–	–	1.7 ×10⁻⁶ cm/s	–
CCCc1ccc(S(=O)(=O)N[C@@H](Cc2ccc(CN)cc2)C(=O)N(C)C2CCCC2)cc1	8.02	5.04	–	–	–	–
CN(C(=O)[C@H](Cc1ccc(CN)cc1)NS(=O)(=O)c1ccc(-c2ccccc2)cc1)C1CCCC1	7.22	–	–	–	–	–

The next lines start with results.

pKi (Prothrombin)	pKi (Serine protease 1)	Tmax [1]	Cmax [2]	Papp [3]	SMILES	inhibition in vivo at 5 mg/kg (Rattus norvegicus)
7.74	4.87	–	–	–	CN(C(=O)[C@H](Cc1ccc(CN)cc1)NS(=O)(=O)c1ccc2ccccc2c1)C1CCCC1	17.6%
8.51	–	–	–	–	NCc1ccc(C[C@H](NS(=O)(=O)c2ccc3ccccc3c2)C(=O)N2CCCCC2)cc1	–
8.24	5.48	–	–	–	CN(C(=O)[C@H](Cc1ccc(CN)cc1)NS(=O)(=O)c1ccc2cc3ccccc3cc2c1)C1CCCC1	45.4%
–	–	–	–	0.2 ×10⁻⁶ cm/s	CN(C(=O)[C@H](Cc1ccc(C(=N)N)cc1)NS(=O)(=O)c1ccc2ccccc2c1)C1CCCC1	–
